Patent publication US20260061042A1, “POLYNUCLEOTIDE COMPOSITIONS AND USES THEREOF” (Pfizer Inc., priority 2024, published 2026)
Residue numbers refer to the chain shown, from its start. Entries after “also recorded” stand apart in the source; their conditions may differ. Like-named read-outs stand apart in the source and are kept apart here.

Legend:
Experiment in all cases: PapG Luminex ligand binding at equilibrium
[1] = biological target: T1, E. coli CFT073 PapG-II lectin domain PapGLD variant N96S S89T, SEQ ID NO: 15 (Escherichia coli, UniProt A0A0H2VAQ6, N116S/S109T); conditions: HEPES pH 7.4, 4° C. overnight
T1 sequence (A0A0H2VAQ6 with tags, fused parts or gaps S109T/N116S): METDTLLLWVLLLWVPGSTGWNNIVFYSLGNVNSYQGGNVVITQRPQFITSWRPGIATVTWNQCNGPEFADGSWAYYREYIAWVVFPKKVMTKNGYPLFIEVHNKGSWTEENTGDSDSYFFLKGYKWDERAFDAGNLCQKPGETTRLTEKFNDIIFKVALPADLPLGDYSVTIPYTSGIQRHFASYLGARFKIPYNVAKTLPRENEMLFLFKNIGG
Method: (§1) To determine the ability of PapGLD mutants to bind the porcine derived globotetraosyl ceramide ligand GalNAc-Gal-Gal-Glc-ceramide (GbO4), a Luminex ligand binding assay was developed. Surfactant Protein-A (SP-A) was coupled to the surface of MagPlex beads by EDC/NHS, to capture the lipid tail of the globotetraosyl ceramide. The Globotetraosyl ceramide/SP-A beads were incubated with an eight-point threefold titration of PapG in a 96 well flat bottom white plate with final volume of 100 microliters of 50 mM HEPES PH 7.4, 10 mM NaCl, 0.0005% Tween 20 shaking at 300 rpm, 4° C. overnight. After 20-24 hours the ligand binding plates were read on a FlexMap 3D plate reader for measurement of well-bead region specific MFI. Ligand binding equilibrium dissociation constants (Kd) were calculated assuming one site specific binding and interpolated using non-linear curve fitting (GraphPad Prism) as the ligand concentration needed to achieve half-maximal binding. The Luminex derived apparent Kd values are based on approximately fifty bead counts per assay sample.
(§2) To determine Luminex ligand binding affinities of PapG mutants for the synthetic globoside ligand Gal-Glc-phenoxy-octyl-amine (GbO2Mpo), a Luminex ligand binding assay was developed based on the direct coupling of the amine reactive globoside ligand to the EDC/NHS activated carboxylic surface of MagPlex beads. Synthesis of GbO2Mpo ligand with an octyl amine linker (for coupling to beads) was performed via methods described previously. The GbO2Mpo beads were incubated with an 8-point, threefold titration of PapG in a 96-well flat bottom white plate with final volume of 100 μl of 50 mM HEPES pH 7.4, 10 mM NaCl, 0.0005% Tween 20 shaking at 300 rpm, 4° C. overnight. After 20-24 hours the ligand binding plates were read on a FlexMap 3D plate reader for measurement of well-bead region specific MFI.
(§3) Binding of PapG proteins to GbO2 or GbO4 ligands was evaluated using a Luminex platform wherein ligands were coupled to MagPlex beads via surfactant protein A (for […]) or directly using […] conjugation (for […]). This assay was used to rank order binding affinities of the mutants, reported as Kd values interpolated from protein antigen titration curves (Table 7).

[2] = biological target: T2, E. coli CFT073 PapG-II lectin domain PapGLD variant N96S G75A, SEQ ID NO: 19 (Escherichia coli, UniProt A0A0H2VAQ6, G95A/N116S); conditions: HEPES pH 7.4, 4° C. overnight
T2 sequence (A0A0H2VAQ6 with tags, fused parts or gaps G95A/N116S): T1 sequence (A0A0H2VAQ6 with tags, fused parts or gaps S109T/N116S) with G95A, T109S
Method: as §1, §2, §3

[3] = biological target: T3, E. coli CFT073 PapG-II lectin domain PapGLD N96S WT v1, SEQ ID NO: 13 (Escherichia coli, UniProt A0A0H2VAQ6, N116S); conditions: HEPES pH 7.4, 4° C. overnight
T3 sequence (A0A0H2VAQ6 with tags, fused parts or gaps N116S): T1 sequence (A0A0H2VAQ6 with tags, fused parts or gaps S109T/N116S) with T109S
Method: as §1, §2, §3

[4] = biological target: T4, E. coli CFT073 full-length donor strand complemented PapG-II, PapGDSF N96S N286S (Escherichia coli, UniProt A0A0H2VAQ6, N116S/N306S); conditions: HEPES pH 7.4, 4° C. overnight
T4 construct: mouse IgGK signal peptide, C-terminal 8xHis, ExpiCHO, purified
T4 sequence (A0A0H2VAQ6 with tags, fused parts or gaps N116S/N306S): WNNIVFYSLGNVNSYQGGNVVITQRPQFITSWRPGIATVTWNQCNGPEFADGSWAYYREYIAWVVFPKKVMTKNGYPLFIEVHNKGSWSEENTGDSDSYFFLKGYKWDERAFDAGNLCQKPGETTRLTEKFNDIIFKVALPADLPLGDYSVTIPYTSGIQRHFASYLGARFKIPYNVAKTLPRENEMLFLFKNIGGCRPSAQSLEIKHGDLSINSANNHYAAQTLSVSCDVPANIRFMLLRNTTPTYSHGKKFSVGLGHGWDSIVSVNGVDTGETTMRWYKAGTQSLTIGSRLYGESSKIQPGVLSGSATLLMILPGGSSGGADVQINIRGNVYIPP
Method: as §1, §2, §3

[5] = biological target: T5, E. coli CFT073 PapG-II lectin domain PapGLD variant N96S G104A, SEQ ID NO: 16 (Escherichia coli, UniProt A0A0H2VAQ6, G124A/N116S); conditions: for Kd: HEPES pH 7.4, 4° C. overnight
T5 sequence (A0A0H2VAQ6 with tags, fused parts or gaps N116S/G124A): T1 sequence (A0A0H2VAQ6 with tags, fused parts or gaps S109T/N116S) with T109S, G124A
Method: as §1, §2, §3

[6] = GbO2Mpo beads, read-out: Kd (GbO2)
[7] = GbO4 beads, read-out: Kd (GbO4)

Substance | Kd [1, 6] | Kd [2, 6] | Kd [3, 6] | Kd [4, 6] | Kd [5, 6] | Kd [1, 7] | Kd [2, 7] | Kd [3, 7] | Kd [4, 7] | binding to GbO4 (in words) [5] | Kd [5, 7]
Gal-Glc-phenoxy-octyl-amine [GbO2] | 1 nM | 2.2 nM | 0.7 nM | 1.6 nM | > 300 nM | – | – | – | – | – | –
GalNAc-Gal-Gal-Glc-ceramide [GbO4] | – | – | – | – | – | < 50 nM | > 10 nM | 14.1 nM | 8.8 nM | lower the binding affinity; also recorded: eliminate ligand binding | > 300 nM
